Here are results for 1 compound from PMC11286144 (Archives of biochemistry and biophysics, 2024).

Some targets named below: K257A CYP3A4 (Homo sapiens, UniProt P08684, K257A); CYP3A4 (WT) (Homo sapiens, UniProt P08684); K266A CYP3A4 (Homo sapiens, UniProt P08684, K266A).
What all share (assay): BFC debenzylase activity assay

Where “and” joins values, the source holds several entries; their conditions need not be identical. Equal entries are not always repeated.

Chain of K266A CYP3A4 (P08684 whole entry K266A): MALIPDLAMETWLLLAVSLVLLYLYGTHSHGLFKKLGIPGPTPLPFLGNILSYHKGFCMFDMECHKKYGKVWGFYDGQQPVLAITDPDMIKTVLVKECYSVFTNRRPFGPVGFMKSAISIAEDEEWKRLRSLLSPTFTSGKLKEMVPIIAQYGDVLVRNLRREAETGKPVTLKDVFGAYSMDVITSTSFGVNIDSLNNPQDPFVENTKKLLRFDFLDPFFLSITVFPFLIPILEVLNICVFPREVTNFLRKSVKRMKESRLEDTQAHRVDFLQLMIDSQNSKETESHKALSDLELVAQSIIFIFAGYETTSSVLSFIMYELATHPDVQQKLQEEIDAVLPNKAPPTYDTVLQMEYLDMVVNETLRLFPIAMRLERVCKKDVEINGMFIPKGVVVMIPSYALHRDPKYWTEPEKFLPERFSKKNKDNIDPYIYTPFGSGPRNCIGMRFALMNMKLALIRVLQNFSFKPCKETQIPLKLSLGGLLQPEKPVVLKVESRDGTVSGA
Chain of K257A CYP3A4 (P08684 whole entry K257A): as the sequence (P08684 whole entry K266A) above, with K257A, A266K counted along it
Chain of CYP3A4 (WT) (P08684 whole entry): as the sequence (P08684 whole entry K266A) above, with A266K counted along it

Take `O=c1cc(C(F)(F)F)c2ccc(OCc3ccccc3)cc2o1` [BFC]: the “nH (Hill coefficient)” value was 1.0 at K257A CYP3A4 (K257A CYP3A4); 1.8 and 1.8 ± 0.1 on CYP3A4 (WT); 1.9 and 1.9 ± 0.1 on K266A CYP3A4 (K266A CYP3A4). The “higher Vmax than wild type” value at K257A CYP3A4 (K257A CYP3A4 vs WT) is on record as 28%; on K266A CYP3A4 (K266A CYP3A4 vs WT), 44%.
